Experimental data published in PMC8118430, “Utility of novel 2-furanones in synthesis of other heterocyclic compounds having anti-inflammatory activity with dual COX2/LOX inhibition” (Journal of Enzyme Inhibition and Medicinal Chemistry, 2021).

Columns and labels:
[1] = target: T1, 15-LOX (Glycine max, UniProt P08170); test: Lipoxygenase (15-LOX) inhibition assay (Cayman LOX inhibitor screening kit); format: biochemical, soybean; conditions: mean ± SD of three experiments
T1 construct: purchased Cayman Chemical 760700
T1 sequence (P08170 1-839): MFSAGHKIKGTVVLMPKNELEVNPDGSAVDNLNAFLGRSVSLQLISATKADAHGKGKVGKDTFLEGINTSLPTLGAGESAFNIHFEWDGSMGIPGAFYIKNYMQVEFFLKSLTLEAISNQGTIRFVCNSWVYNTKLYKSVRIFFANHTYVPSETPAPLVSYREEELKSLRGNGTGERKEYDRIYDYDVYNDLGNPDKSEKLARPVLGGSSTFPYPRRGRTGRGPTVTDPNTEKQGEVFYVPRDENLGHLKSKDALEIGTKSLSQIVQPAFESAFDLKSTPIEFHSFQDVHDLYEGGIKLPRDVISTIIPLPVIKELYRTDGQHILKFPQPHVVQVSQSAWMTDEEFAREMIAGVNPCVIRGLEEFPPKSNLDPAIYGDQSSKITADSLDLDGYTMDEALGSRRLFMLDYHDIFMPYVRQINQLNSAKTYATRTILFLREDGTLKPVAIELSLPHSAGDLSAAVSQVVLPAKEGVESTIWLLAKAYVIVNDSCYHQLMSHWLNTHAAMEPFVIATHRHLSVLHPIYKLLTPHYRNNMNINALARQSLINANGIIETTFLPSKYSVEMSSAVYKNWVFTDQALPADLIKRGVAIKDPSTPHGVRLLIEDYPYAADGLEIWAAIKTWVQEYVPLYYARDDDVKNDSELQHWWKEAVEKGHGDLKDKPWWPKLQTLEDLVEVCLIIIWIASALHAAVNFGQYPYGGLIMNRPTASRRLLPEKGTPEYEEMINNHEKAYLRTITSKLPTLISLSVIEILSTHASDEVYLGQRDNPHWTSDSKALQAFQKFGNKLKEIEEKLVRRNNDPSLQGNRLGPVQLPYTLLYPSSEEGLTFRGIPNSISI
Description: Briefly, in a 96-well plate, 10 µl of each test compound (dissolved in DMSO) or vehicle were pre-incubated with 90 µl of 15-LOX enzyme. The reaction was started by addition of 10 µl of substrate (AA) and the plate was shaken for at least 5 min. Then, 100 µl of chromogen supplied with the kit was added to each well to stop the enzymatic reaction and develop the colour. The absorbance was measured at 490 nm using microplate reader.
Therefore, the soybean LOX is most like the mammalian 15-LOX[59].

[2] = target: T2, TNF-α (Homo sapiens, UniProt P01375); test: TNFR2: TNF-α [biotinylated] inhibitor screening assay; format: binding; conditions: for IC50: mean ± SD of three experiments
T2 construct: purchased BPS Bioscience 79756
Description: The assay was performed in triplicates using TNFR2: TNF-α [biotinylated] […] First, TNFR2 is coated on a 96-well plate. Next, biotinylated TNF-α is incubated with TNFR2 on the plate. Finally, the plate was treated with streptavidin-HRP followed by addition of an HRP substrate to produce chemiluminescence, which can be measured using a chemiluminescence reader.

[3] = target: T3, COX-1 (Ovis aries, UniProt P05979); test: Cyclooxygenase COX-1 inhibition assay (Cayman COX inhibitor screening kit, EIA)
T3 sequence (P05979 25-600): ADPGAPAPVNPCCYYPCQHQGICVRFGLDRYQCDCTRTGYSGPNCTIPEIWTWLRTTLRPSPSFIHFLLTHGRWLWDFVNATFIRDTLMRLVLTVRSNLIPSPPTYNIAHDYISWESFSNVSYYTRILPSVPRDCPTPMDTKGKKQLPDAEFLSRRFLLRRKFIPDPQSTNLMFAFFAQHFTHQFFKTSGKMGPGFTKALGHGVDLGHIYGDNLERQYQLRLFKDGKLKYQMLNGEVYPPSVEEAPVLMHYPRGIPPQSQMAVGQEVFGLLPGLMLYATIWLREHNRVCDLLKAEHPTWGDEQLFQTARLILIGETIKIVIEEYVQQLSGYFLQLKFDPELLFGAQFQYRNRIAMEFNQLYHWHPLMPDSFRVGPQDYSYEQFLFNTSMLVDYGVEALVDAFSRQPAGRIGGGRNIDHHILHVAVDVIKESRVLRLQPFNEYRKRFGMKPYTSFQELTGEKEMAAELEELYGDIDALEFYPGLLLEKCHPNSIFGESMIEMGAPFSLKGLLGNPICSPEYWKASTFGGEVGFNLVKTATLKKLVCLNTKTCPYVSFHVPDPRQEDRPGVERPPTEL
Description: (§1) Tested compounds were dissolved in DMSO. […] The COX inhibitor screening assay depends on direct measurement of the amount of PG2α produced in the COX reaction. […] Enzyme catalysis was terminated by addition of 50 µl 1 M HCl and 100 µl of the saturated stannous chloride solution. The PGs are quantified by enzyme immunoassay (EIA) at 410 nm.
(§2) Thus, the newly synthesised compounds were tested for their anti-inflammatory activity against isozymes COX-1 and COX-2, which were determined by the COX-catalysed transformation of AA into PGH2 that was reduced to PGF2α and detected by the EIA[53], as shown in Table 1.

[4] = target: T4, COX-2 (Homo sapiens, UniProt P35354); test: Cyclooxygenase COX-2 inhibition assay (Cayman COX inhibitor screening kit, EIA); conditions: for Selectivity indexes (SI): SI = IC50 COX-1/COX-2 ratios
T4 sequence (P35354 18-604): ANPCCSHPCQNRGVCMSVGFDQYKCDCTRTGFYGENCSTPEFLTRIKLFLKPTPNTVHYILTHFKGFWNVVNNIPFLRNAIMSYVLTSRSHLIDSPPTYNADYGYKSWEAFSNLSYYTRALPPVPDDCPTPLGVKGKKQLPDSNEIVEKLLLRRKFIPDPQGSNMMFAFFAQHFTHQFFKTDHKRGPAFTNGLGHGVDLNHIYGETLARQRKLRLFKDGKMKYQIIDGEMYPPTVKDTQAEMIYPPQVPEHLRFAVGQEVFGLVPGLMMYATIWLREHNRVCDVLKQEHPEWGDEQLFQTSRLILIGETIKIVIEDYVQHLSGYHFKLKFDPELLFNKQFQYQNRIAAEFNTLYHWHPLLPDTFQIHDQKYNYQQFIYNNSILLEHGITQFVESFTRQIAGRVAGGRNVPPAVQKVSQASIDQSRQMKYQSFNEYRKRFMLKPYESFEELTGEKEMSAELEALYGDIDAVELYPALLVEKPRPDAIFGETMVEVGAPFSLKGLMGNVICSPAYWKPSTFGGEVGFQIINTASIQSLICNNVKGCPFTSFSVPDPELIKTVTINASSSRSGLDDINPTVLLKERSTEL
Description: as §1, §2

T2 sequence (P01375 77-233 limits assumed): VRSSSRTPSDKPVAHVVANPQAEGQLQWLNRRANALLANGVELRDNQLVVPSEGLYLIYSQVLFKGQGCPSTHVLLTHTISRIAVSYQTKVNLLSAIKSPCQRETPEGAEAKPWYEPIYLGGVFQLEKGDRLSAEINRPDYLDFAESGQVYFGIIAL

| Compound | IC50 [1] | IC50 [2] | melting point | IC50 [3] | IC50 [4] | Selectivity indexes (SI) [4] | COX-2 inhibition, in words (SAR discussion) ([4]; qualitative statement) | TNF-α inhibition, in words (discussion) ([2]; qualitative statement) |
| --- | --- | --- | --- | --- | --- | --- | --- | --- |
| CN(C)c1ccc(C=C2C=C(c3ccc(Cl)c(Cl)c3)N(c3ccccc3)NC2=O)cc1 [Compound 5c, 6-(3,4-Dichlorophenyl)-4-(4-dimethylaminobenzylidene)-1-phenyl-1,4-dihydropyridazin-3(2H)-one] | 2.97 ± 0.12 µM | 0.00357 ± 0.00012 µM | > 300 °C | 11.7 ± 0.12 µM | 0.09 µM | 130.33 |  |  |
| CN(C)c1ccc(C=C(CC(=O)c2ccc(Cl)c(Cl)c2)C(=O)NN)cc1 [Compound 6c, 4-(3,4-Dichlorophenyl)-2-(4-dimethylaminobenzylidene)-4-oxo-butanehydrazide] | 3.17 ± 0.06 µM | 0.00617 ± 6e-05 µM | 154 to 156 °C | 8.83 ± 0.06 µM | 0.1 ± 0.01 µM | 88.30 |  |  |
| CN(C)c1ccc(C=C(CC(=O)c2ccc(Cl)c(Cl)c2)C(=O)NCc2ccccc2)cc1 [Compound 4c, N-benzyl-2-(4-dimethylaminobenzylidene]-4-(3,4-dichlorophenyl)-4-oxobutanamide] | 4.67 ± 0.06 µM | 0.00547 ± 0.00012 µM | 241 to 243 °C | 11.9 ± 0.1 µM | 0.05 µM | 238.00 |  |  |
| NNC(=O)C(=Cc1cccc([N+](=O)[O-])c1)CC(=O)c1ccc(Cl)c(Cl)c1 [Compound 6b, 4-(3,4-Dichlorophenyl)-2-(3-nitrobenzylidene)-4-oxo-butanehydrazide] | 2.47 ± 0.06 µM | 0.0041 ± 0.0001 µM | 160 to 162 °C | 10.1 ± 0.15 µM | 0.08 µM | 125.88 | high activity |  |
| O=C(CC(=Cc1ccccc1[N+](=O)[O-])c1n[nH]c(=S)o1)c1ccc(Cl)c(Cl)c1 [Compound 9a, 1-(3,4-Dichlorophenyl)-4-(2-nitrophenyl)-3-(2-thioxo-4,5-dihydro-1,3,4-oxadiazol-5-yl)but-3-en-1-one] | 2.07 ± 0.15 µM | 0.00557 ± 6e-05 µM | 214 to 216 °C | 9.43 ± 0.12 µM | 0.28 ± 0.01 µM | 33.68 |  |  |
| O=C1NN(c2ccccc2)C(c2ccc(Cl)c(Cl)c2)=CC1=Cc1ccccc1[N+](=O)[O-] [Compound 5a, 6-(3,4-Dichlorophenyl)-4-(2-nitrobenzylidene)-1-phenyl-1,4-dihydropyridazin-3(2H)-one] | 2.7 ± 0.95 µM | 0.00493 ± 6e-05 µM | > 300 °C | 12.73 ± 0.12 µM | 0.06 µM | 212.17 |  |  |
| CN(C)c1ccc(C=C2C=C(c3ccc(Cl)c(Cl)c3)N(C(=O)c3ccccc3)NC2=O)cc1 [Compound 8c, 2-Benzoyl-5-(4-dimethylaminobenzylidene)-3-(3,4-dichlorophenyl)-1H-pyridazin-6-one] | 3.17 ± 0.06 µM | 0.0029 ± 0.0001 µM | 229 to 231 °C | 13.07 ± 0.12 µM | 0.04 µM | 326.75 |  | lowest IC50 value |
| O=C1OC(c2ccc(Cl)c(Cl)c2)=CC1=Cc1cccc([N+](=O)[O-])c1 [Compound 2b, 5-(3,4-Dichlorophenyl)3-(3-nitrobenzylidene)-furan-2-one] | 4.4 ± 0.1 µM | 0.00777 ± 0.00168 µM | 230 to 232 °C | 6.97 ± 0.12 µM | 0.28 ± 0.01 µM | 24.89 |  |  |
| CN(C)c1ccc(C=C2C=C(c3ccc(Cl)c(Cl)c3)NC2=O)cc1 [Compound 3c, 5-(3,4-Dichlorophenyl)-3-(4-dimethylaminobenzylidene)-1H-pyrrol-2-one] | 2.21 ± 0.98 µM | 0.00677 ± 0.00012 µM | > 300 °C | 5.93 ± 0.15 µM | 0.34 ± 0.01 µM | 17.44 |  |  |
